The source of these data is US12568969B2, “Pyridine compounds for controlling invertebrate pests” (FMC Corporation, priority 2020, dated 2026).

What all share (type): in vivo
Assay [1] concerns corn planthopper (Peregrinus maidis (Ashmead)). Put plainly: whole plant or invertebrate. To be noted: Peregrinus maidis, 144 h, 6 days; for mortality at 10 ppm: sprayed at 10 ppm; for mortality at 50 ppm: sprayed at 50 ppm; for mortality at 250 ppm: sprayed at 250 ppm. The method, boiled down: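 Corn plants 3-4 days old were sprayed at 250, 50 and/or 10 ppm in 10% acetone with 300 ppm non-ionic surfactant, three replicates, contact and/or systemic exposure. After 1 h drying, ~15-20 nymphs (18-to-21-day-old) were added; mortality assessed visually after 6 days at 22-24° C, 50-70% RH.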

Assay [2] concerns cotton melon aphid (Aphis gossypii (Glover)). Put plainly: whole plant or invertebrate. Particulars: Aphis gossypii, 144 h, 6 days; for mortality at 50 ppm: sprayed at 50 ppm; for mortality at 250 ppm: sprayed at 250 ppm. In a few lines: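 Compounds were formulated in a solution of 10% acetone, […] and 300 ppm Activator 909 non-ionic surfactant and sprayed as 1 mL through an atomizer nozzle 1.27 cm (0.5 inches) above each test unit, with three replicates. Units were pre-infested with 30-40 aphids on leaf pieces via the cut-leaf method, soil covered with sand, then kept 6 days at 19° C. and 70% relative humidity before visual mortality scoring.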

For assay [3], the system named is green peach aphid (Myzus persicae (Sulzer)). Description: Test D: control of green peach aphid on radish plant, spray. Particulars: Myzus persicae, 144 h, 6 days; for mortality at 50 ppm: sprayed at 50 ppm; for mortality at 250 ppm: sprayed at 250 ppm. The protocol:
(§1) Test compounds were formulated using a solution containing 10% acetone, […] and 300 ppm Activator 909 non-ionic surfactant (Loveland Products, Loveland, Colorado, USA). The formulated compounds were applied in 1 mL of liquid through an atomizer nozzle positioned 1.27 cm (0.5 inches) above the top of each test unit. Test compounds were sprayed at the rates indicated, and each test was replicated three times.
For evaluating control of green peach aphid (Myzus persicae (Sulzer)) through contact and/or systemic means, the test unit consisted of a small open container with a 12-15-day-old radish plant inside. This was pre-infested by placing on a leaf of the test plant 30-40 aphids on a piece of leaf excised from a culture plant (cut-leaf method). The aphids moved onto the test plant as the leaf piece desiccated. After pre-infestation, the soil of the test unit was covered with a layer of sand.
[…] After spraying of the formulated test compound, each test unit was allowed to dry for 1 hour and then a black, screened cap was placed on top. The test units were held for 6 days in a growth chamber at 19-21° C. and 50-70% relative humidity. Each test unit was then visually assessed for insect mortality.

Assay [4] has as its system diamondback moth (Plutella xylostella (L.)). Put plainly: Test A: control of diamondback moth on mustard plant, spray. Particulars: sprayed at 250 ppm; assessed after 6 days. The protocol:
as §1
For evaluating control of diamondback moth (Plutella xylostella (L.)) the test unit consisted of a small open container with a 12-14-day-old mustard plant inside. This was pre-infested with ˜50 neonate larvae that were dispensed into the test unit via corn cob grits using an inoculator. The larvae moved onto the test plant after being dispensed into the test unit.
Test compounds were formulated and sprayed at 250 ppm. After spraying of the formulated test compound, each test unit was allowed to dry for 1 hour and then a black, screened cap was placed on top. The test units were held for 6 days in a growth chamber at 25° C. and 70% relative humidity. Plant feeding damage was then visually assessed based on foliage consumed, and larvae were assessed for mortality.

For assay [5], the system named is sweetpotato whitefly (Bemisia tabaci (Gennadius)). Put plainly: Test F: control of sweetpotato whitefly on cotton plant, spray. To be noted: 312 h, 13 days; for mortality at 250 ppm: sprayed at 250 ppm; for mortality at 50 ppm: sprayed at 50 ppm. The protocol:
as §1
For evaluating control of the sweetpotato whitefly (Bemisia tabaci (Gennadius)) through contact and/or systemic means, the test unit consisted of a small open container with a 12-14-day-old cotton plant inside. Prior to the spray application, both cotyledons were removed from the plant, leaving one true leaf for the assay. Adult whiteflies were allowed to lay eggs on the plant and then were removed from the test unit. Cotton plants infested with at least 15 eggs were submitted to the test for spraying.
Test compounds were formulated and sprayed at 250 and/or 50 ppm. After spraying, the test units were allowed to dry for 1 hour. The cylinders were then removed, and the units were taken to a growth chamber and held for 13 days at 28° C. and 50-70% relative humidity. Each test unit was then visually assessed for insect mortality.

The mortality is the percentage killed. As to `COC(c1ccc(SC(F)(F)F)cc1)c1c(Cl)cncc1-n1nccn1` (single isomer, unassigned) [Compound 130], the mortality at 10 ppm in assay [1] was ≥ 80%. For the same molecule, the mortality at 50 ppm in assay [1], in assay [2] and in assay [3] was ≥ 80% each time. Moreover, the mortality at 250 ppm in assay [1], in assay [2] and in assay [3] was ≥ 80% throughout. For the same molecule, the “control efficacy (40% or less feeding damage and/or 100% mortality)” value in assay [4] is recorded as “very good to excellent levels of control efficacy”.
For `Fc1cncc(-n2nccn2)c1C(F)c1ccc(SC(F)(F)F)cc1` (stereo not drawn) [Compound 3], the mortality at 50 ppm in assay [1], in assay [2] and in assay [3] was ≥ 80% in each case. For the same molecule, the mortality at 250 ppm is ≥ 80% in assay [1], ≥ 80% in assay [2], ≥ 80% in assay [3] and ≥ 70% in assay [5]. Further, in assay [4], the “control efficacy (40% or less feeding damage and/or 100% mortality)” value was “very good to excellent levels of control efficacy”.
As to `Fc1cncc(-n2cncn2)c1C(F)c1ccc(C(F)(F)F)cc1` (stereo not drawn) [Compound 18], the mortality at 50 ppm in assay [1] and in assay [3] was ≥ 80% each time. In addition, the mortality at 250 ppm in assay [1] and in assay [3] was ≥ 80% throughout. The “control efficacy (40% or less feeding damage and/or 100% mortality)” value in assay [4] is given as “very good to excellent levels of control efficacy”.
Take `Fc1cncc(-n2nccn2)c1C(F)c1ccc(C(F)(F)F)cc1` (stereo not drawn) [Compound 20]: the mortality at 50 ppm in assay [1], in assay [2] and in assay [3] was ≥ 80% in each case. Further, the mortality at 250 ppm in assay [1], in assay [2] and in assay [3] was ≥ 80% each time. Besides, in assay [4], the “control efficacy (40% or less feeding damage and/or 100% mortality)” value was “very good to excellent levels of control efficacy”.
As for `Fc1cncc(-c2ccco2)c1C(F)c1ccc(OC(F)(F)F)cc1` (stereo not drawn) [Compound 22], in assay [1], the mortality at 10 ppm was ≥ 80%, the mortality at 50 ppm was ≥ 80% and the mortality at 250 ppm is ≥ 80%. Moreover, in assay [2], the mortality at 50 ppm is ≥ 80% and the mortality at 250 ppm is ≥ 80%. Moreover, the mortality at 250 ppm in assay [3] is ≥ 80%. Further, in assay [4], the “control efficacy (40% or less feeding damage and/or 100% mortality)” value is “very good to excellent levels of control efficacy”.
As for `Fc1cncc(-c2ccoc2)c1C(F)c1ccc(OC(F)(F)F)cc1` (stereo not drawn) [Compound 23], in assay [1], the mortality at 50 ppm is ≥ 80% and the mortality at 250 ppm was ≥ 80%. The mortality at 250 ppm in assay [3] is ≥ 80%. The “control efficacy (40% or less feeding damage and/or 100% mortality)” value in assay [4] was “very good to excellent levels of control efficacy”.
On to `Fc1cncc(-c2nnco2)c1C(F)c1ccc(OC(F)(F)F)cc1` (stereo not drawn) [Compound 30], for which, in assay [1], the mortality at 10 ppm was ≥ 80%, the mortality at 50 ppm is ≥ 80% and the mortality at 250 ppm is ≥ 80%. Further, the mortality at 250 ppm in assay [3] is ≥ 80%. The “control efficacy (40% or less feeding damage and/or 100% mortality)” value in assay [4] was “very good to excellent levels of control efficacy”.
For `Fc1cncc(-c2cnco2)c1C(F)c1ccc(OC(F)(F)F)cc1` (stereo not drawn) [Compound 34], the mortality at 50 ppm in assay [1], in assay [2] and in assay [3] was ≥ 80% throughout. Further, the mortality at 250 ppm in assay [1], in assay [2] and in assay [3] was ≥ 80% in each case. The “control efficacy (40% or less feeding damage and/or 100% mortality)” value in assay [4] was “very good to excellent levels of control efficacy”.
Turning to `N#Cc1cncc(-n2nccn2)c1C(F)c1ccc(OC(F)(F)F)cc1` (stereo not drawn) [Compound 48], in assay [1], the mortality at 10 ppm was ≥ 80% and the mortality at 50 ppm was ≥ 80%. Further, in assay [3], the mortality at 50 ppm was ≥ 80% and the mortality at 250 ppm was ≥ 80%. In addition, the “control efficacy (40% or less feeding damage and/or 100% mortality)” value in assay [4] is reported as “very good to excellent levels of control efficacy”.
As to `Fc1cncc(-c2ncco2)c1C(F)c1ccc(SC(F)(F)F)cc1` (stereo not drawn) [Compound 78], in assay [1], the mortality at 10 ppm was ≥ 80%. For the same molecule, the mortality at 50 ppm in assay [1] is ≥ 80%; in assay [2] it was ≥ 80%; in assay [3], ≥ 80%; in assay [5], ≥ 70%. Further, the mortality at 250 ppm in assay [1] is ≥ 80%; in assay [2], ≥ 80%; in assay [3], ≥ 80%; in assay [5] it was ≥ 70%. Further, the “control efficacy (40% or less feeding damage and/or 100% mortality)” value in assay [4] is recorded as “very good to excellent levels of control efficacy”.
On to `FC(c1ccc(SC(F)(F)F)cc1)c1c(Cl)cncc1-n1nccn1` (stereo not drawn) [Compound 89], for which the mortality at 10 ppm in assay [1] was ≥ 80%. The mortality at 50 ppm is ≥ 80% in assay [1], ≥ 80% in assay [2], ≥ 80% in assay [3] and ≥ 70% in assay [5]. The mortality at 250 ppm is ≥ 80% in assay [1], ≥ 80% in assay [2], ≥ 80% in assay [3] and ≥ 70% in assay [5]. The “control efficacy (40% or less feeding damage and/or 100% mortality)” value in assay [4] is “very good to excellent levels of control efficacy”.
Take `Fc1cncc(-n2nccn2)c1C(F)c1ccc(Br)cc1` (stereo not drawn) [Compound 92]: in assay [1], the mortality at 10 ppm is ≥ 80%, the mortality at 50 ppm is ≥ 80% and the mortality at 250 ppm is ≥ 80%. Further, in assay [2], the mortality at 50 ppm is ≥ 80% and the mortality at 250 ppm was ≥ 80%. Also, in assay [4], the “control efficacy (40% or less feeding damage and/or 100% mortality)” value is “very good to excellent levels of control efficacy”. In assay [5], the mortality at 50 ppm is ≥ 70% and the mortality at 250 ppm was ≥ 70%.
Turning to `COC(c1ccc(SC(F)F)cc1)c1c(F)cncc1-n1nccn1` (stereo not drawn) [Compound 118], the mortality at 50 ppm was ≥ 80% in assay [2], ≥ 80% in assay [3] and ≥ 70% in assay [5]. The mortality at 250 ppm in assay [2] was ≥ 80%; in assay [3], ≥ 80%; in assay [5], ≥ 70%. Besides, the “control efficacy (40% or less feeding damage and/or 100% mortality)” value in assay [4] is “very good to excellent levels of control efficacy”.
Consider `COC(c1ccc(SC(F)(F)F)cc1)c1c(I)cncc1-n1nccn1` (stereo not drawn) [Compound 120], for which the mortality at 50 ppm is ≥ 80% in assay [1] and ≥ 70% in assay [5]. In addition, the mortality at 250 ppm was ≥ 80% in assay [1] and ≥ 70% in assay [5]. Moreover, the “control efficacy (40% or less feeding damage and/or 100% mortality)” value in assay [4] is reported as “very good to excellent levels of control efficacy”.
On to `COC(c1ccc(SC(F)(F)F)cc1)c1c(F)cncc1-n1nccn1` (stereo not drawn) [Compound 123], for which the mortality at 10 ppm in assay [1] was ≥ 80%. In addition, the mortality at 50 ppm in assay [1] is ≥ 80%; in assay [2], ≥ 80%; in assay [3], ≥ 80%; in assay [5], ≥ 70%. Also, the mortality at 250 ppm in assay [1] was ≥ 80%; in assay [2], ≥ 80%; in assay [3] it was ≥ 80%; in assay [5], ≥ 70%. Further, the “control efficacy (40% or less feeding damage and/or 100% mortality)” value in assay [4] was “very good to excellent levels of control efficacy”.
As to `COC(c1ccc(SC(F)(F)F)cc1)c1c(Br)cncc1-n1nccn1` (stereo not drawn) [Compound 133], in assay [2], the mortality at 50 ppm is ≥ 80% and the mortality at 250 ppm is ≥ 80%. Further, the “control efficacy (40% or less feeding damage and/or 100% mortality)” value in assay [4] is given as “very good to excellent levels of control efficacy”. Besides, in assay [5], the mortality at 50 ppm is ≥ 70% and the mortality at 250 ppm was ≥ 70%.
